# According to PubChem BioAssay AID332 (DTP/NCI, 2004):
# Where “and” joins values, the source holds several entries; their conditions need not be identical. Equal entries are not always repeated. Inconclusive results are not listed.
# Tested on: mice, ADJ-PC-20 plasma cell tumor sc, T/C %
# Test: NCI In Vivo Anticancer Drug Screen. Data for tumor model ADJ-PC-20 Plasma Cell (subcutaneous) in unknown mice
# Conditions: endpoint: mean tumor weight, schedule: Q01DX010 (ip), higher = larger tumour
# Method: The antitumor activity of compounds was measured in mice bearing transplantable tumors. Survival or tumor size were measured and the results are expressed as the measurement made in the treated group (T) divided by the measurement made in the vehicle treated control group (C). The tumor model used in this assay is ADJ-PC-20 Plasma Cell (subcutaneous) in unknown mice
# [1] = dose: 125.0 mg/kg/injection, vehicle: carboxymethylcellulose (CMC)
# [2] = dose: 250.0 mg/kg/injection, vehicle: carboxymethylcellulose (CMC)
# [3] = dose: 250.0 mg/kg/injection, vehicle: saline
# [4] = dose: 500.0 mg/kg/injection, vehicle: saline
# [5] = dose: 62.5 mg/kg/injection, vehicle: carboxymethylcellulose (CMC)
# [6] = dose: 500.0 mg/kg/injection, vehicle: carboxymethylcellulose (CMC)
# [7] = dose: 1000.0 mg/kg/injection, vehicle: carboxymethylcellulose (CMC)
# [8] = dose: 3.1 mg/kg/injection, vehicle: carboxymethylcellulose (CMC)
# [9] = dose: 6.3 mg/kg/injection, vehicle: carboxymethylcellulose (CMC)
# [10] = dose: 12.5 mg/kg/injection, vehicle: carboxymethylcellulose (CMC)
# [11] = dose: 31.25 mg/kg/injection, vehicle: carboxymethylcellulose (CMC)
structure (smiles),measurement,setting,value
CCOC(=O)NP(=O)(N1CC1(C)C)N1CC1(C)C (stereo not given),T/C,[1],68 % of control
same,T/C,[2],20 % of control
CN(C)CC(=O)c1ccc(O)c(O)c1,T/C,"dose: 62.5 mg/kg/injection, vehicle: saline",99 % of control
same,T/C,[3],77 % of control
same,T/C,[4],72 % of control and 86 % of control
CC1CCOS(=O)O1 (stereo not given),T/C,"dose: 10.0 mg/kg/injection, vehicle: carboxymethylcellulose (CMC)",65 % of control
same,T/C,"dose: 20.0 mg/kg/injection, vehicle: carboxymethylcellulose (CMC)",50 % of control
same,T/C,"dose: 40.0 mg/kg/injection, vehicle: carboxymethylcellulose (CMC)",32 % of control
C[C@H](N)C(=O)N[C@@H]1[C@H]2C(=C(O)C[C@@H](O)[C@@H]2O)C(=O)O[C@@H]1C,T/C,[3],48 % of control
same,T/C,[4],58 % of control
O=CCC(O)C(O)C(O)CO (stereo not given),T/C,[5],110 % of control
same,T/C,[1],115 % of control
same,T/C,[2],117 % of control
same,T/C,[6],80 % of control
same,T/C,[7],96 % of control
same,T/C,"dose: 2000.0 mg/kg/injection, vehicle: carboxymethylcellulose (CMC)",94 % of control
C[C@]12CC[C@H](OC3OC(CO)C(O)C(O)C3O)C[C@H]1CC[C@@H]1[C@@H]2CC[C@]2(C)[C@@H](C3=CCOC3=O)CC[C@]12O (stereo not given in full),T/C,"dose: 63.0 micrograms/kg/injection, vehicle: saline",99 % of control
same,T/C,"dose: 125.0 micrograms/kg/injection, vehicle: saline",93 % of control
same,T/C,"dose: 250.0 micrograms/kg/injection, vehicle: saline",95 % of control
CCCCn1cnc2c(=S)nc[nH]c21,T/C,"dose: 0.8 mg/kg/injection, vehicle: carboxymethylcellulose (CMC)",74 % of control
same,T/C,"dose: 1.6 mg/kg/injection, vehicle: carboxymethylcellulose (CMC)",68 % of control
same,T/C,[8],52 % of control
same,T/C,[9],41 % of control
same,T/C,[10],15 % of control
same,T/C,"dose: 25.0 mg/kg/injection, vehicle: carboxymethylcellulose (CMC)",1 % of control
S=P(N1CCOCC1)(N1CC1)N1CC1,T/C,[8],88 % of control and 100 % of control
same,T/C,[9],116 % of control
same,T/C,[10],1 % of control
O=c1[nH]c(=O)n(C2CC(O)C(CO)O2)cc1Br (stereo not given),T/C,[11],80 % of control
same,T/C,[5],86 % of control
same,T/C,[1],74 % of control
same,T/C,[6],88 % of control
same,T/C,[7],74 % of control
Clc1ncnc2nc[nH]c12,T/C,"dose: 7.8 mg/kg/injection, vehicle: carboxymethylcellulose (CMC)",153 % of control
same,T/C,"dose: 15.6 mg/kg/injection, vehicle: carboxymethylcellulose (CMC)",86 % of control
same,T/C,"dose: 31.2 mg/kg/injection, vehicle: carboxymethylcellulose (CMC)",64 % of control
same,T/C,[11],14 % of control
same,T/C,[5],3 % of control
same,T/C,[1],4 % of control
CS(=O)(=O)OCCCCOS(C)(=O)=O,T/C,"dose: 6.25 mg/kg/injection, vehicle: methylcellulose (MC)",93 % of control
same,T/C,"dose: 12.5 mg/kg/injection, vehicle: methylcellulose (MC)",66 % of control
same,T/C,"dose: 25.0 mg/kg/injection, vehicle: methylcellulose (MC)",71 % of control and 72 % of control
same,T/C,"dose: 50.0 mg/kg/injection, vehicle: methylcellulose (MC)",42 % of control
O=C(O)CCCc1ccc(N(CCCl)CCCl)cc1,T/C,"dose: 6.25 mg/kg/injection, vehicle: carboxymethylcellulose (CMC)",120 % of control
same,T/C,[10],58 % of control
